What was measured:
[1] = molecular target: T1, Solute carrier organic anion transporter family member 1B1 (Homo sapiens, UniProt Q9Y6L6); details: chinese hamster, cho, 10 µM
T1 sequence (Q9Y6L6 whole entry): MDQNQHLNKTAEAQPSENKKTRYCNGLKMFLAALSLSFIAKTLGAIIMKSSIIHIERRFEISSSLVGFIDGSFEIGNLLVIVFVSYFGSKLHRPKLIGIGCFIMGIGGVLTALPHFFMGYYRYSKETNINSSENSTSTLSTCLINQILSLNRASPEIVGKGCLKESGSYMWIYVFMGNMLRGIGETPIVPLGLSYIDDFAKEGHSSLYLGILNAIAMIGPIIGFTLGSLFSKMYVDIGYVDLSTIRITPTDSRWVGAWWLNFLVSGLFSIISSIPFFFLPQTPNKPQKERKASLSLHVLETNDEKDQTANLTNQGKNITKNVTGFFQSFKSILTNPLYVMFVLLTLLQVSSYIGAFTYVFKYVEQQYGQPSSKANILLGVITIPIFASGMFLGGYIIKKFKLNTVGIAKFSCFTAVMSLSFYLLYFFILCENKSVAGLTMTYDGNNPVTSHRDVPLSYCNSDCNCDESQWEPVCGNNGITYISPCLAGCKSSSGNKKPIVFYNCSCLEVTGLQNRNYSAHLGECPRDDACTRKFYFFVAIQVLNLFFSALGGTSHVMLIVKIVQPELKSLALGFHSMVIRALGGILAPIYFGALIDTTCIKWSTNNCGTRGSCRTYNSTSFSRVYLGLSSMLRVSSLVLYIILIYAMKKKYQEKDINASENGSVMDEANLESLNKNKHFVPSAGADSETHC

[2] = molecular target: T2, Solute carrier organic anion transporter family member 1B3 (Homo sapiens, UniProt Q9NPD5); details: chinese hamster, cho, 10 µM
T2 sequence (Q9NPD5 whole entry): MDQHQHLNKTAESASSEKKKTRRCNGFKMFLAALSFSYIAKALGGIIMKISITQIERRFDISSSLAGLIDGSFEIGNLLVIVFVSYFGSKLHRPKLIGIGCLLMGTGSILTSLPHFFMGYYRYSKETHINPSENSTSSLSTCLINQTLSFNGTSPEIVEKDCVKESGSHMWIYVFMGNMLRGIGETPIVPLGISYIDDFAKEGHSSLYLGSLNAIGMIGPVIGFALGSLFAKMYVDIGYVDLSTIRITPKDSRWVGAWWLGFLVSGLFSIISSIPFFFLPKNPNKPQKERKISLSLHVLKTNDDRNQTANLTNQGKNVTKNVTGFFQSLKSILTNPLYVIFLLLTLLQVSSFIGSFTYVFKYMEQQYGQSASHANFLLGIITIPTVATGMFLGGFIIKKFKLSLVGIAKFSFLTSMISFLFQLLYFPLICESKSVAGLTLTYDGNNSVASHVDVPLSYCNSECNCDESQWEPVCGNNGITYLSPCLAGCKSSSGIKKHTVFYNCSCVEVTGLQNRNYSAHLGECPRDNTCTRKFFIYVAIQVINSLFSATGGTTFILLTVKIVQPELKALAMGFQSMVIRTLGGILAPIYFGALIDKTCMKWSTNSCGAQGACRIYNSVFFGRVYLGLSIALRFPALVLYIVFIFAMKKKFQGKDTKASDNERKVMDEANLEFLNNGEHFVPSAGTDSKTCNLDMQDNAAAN

Compound	residual activity [1]	residual activity [2]
COc1cc(OC)c(-c2c(OC)cc(OC)cc2OC)c(OC)c1 [DIFUCOL HEXAMETHYL ETHER]	117.5%	105.6%
CC(C)=CCC[C@](C)(O)[C@@H]1CC=C(C)CC1 [LEVOMENOL]	83.39%	97.78%
C[C@@H]1C(=O)O[C@H]2[C@H]1CC[C@@]1(C)C=CC(=O)[C@@]3(C)O[C@@]213 [EPOXY (4,5alpha)-4,5-DIHYDROSANTONIN]	91.53%	88.69%
COc1c(O)cc(O)cc1O [IRETOL]	89.16%	111.8%
Nc1ccc(S(=O)(=O)NC(=O)c2ccccc2)cc1 [SULFABENZAMIDE]	84.77%	94.35%
CCCCCCCCCCCCCCCC[n+]1ccccc1.O.[Cl-]	77.95%	166.6%
C=CCCCCCCCCCCCC(O)CC(O)CO (stereo in doubt; form 2) [AVOCADENE]	99.03%	104.3%
C[C@](N)(Cc1ccc(O)c(O)c1)C(=O)O [METHYLDOPA]	111.3%	103.5%
O=c1[nH]c(=O)n([C@H]2C[C@H](O)[C@@H](CO)O2)cc1C(F)(F)F [TRIFLURIDINE]	64.99%	84.35%
COC1=CC(=O)C[C@@H](C)[C@]12Oc1c(Cl)c(OC)cc(OC)c1C2=O [GRISEOFULVIN]	65.59%	97.62%
COc1ccc2c(c1)OC/C(=C\c1ccc(OC)c(O)c1)C2=O [SAPPANONE A DIMETHYL ETHER]	166.6%	136.1%
CCCCCCCC/C=C/CCCCCCCCOP(=O)([O-])OCC[N+](C)(C)C [ELAIDYLPHOSPHOCHOLINE]	66.64%	84.98%
CCC1(C2=NCCN2)Cc2ccccc2O1.Cl (stereo unspecified) [EFAROXAN HYDROCHLORIDE]	80.2%	83.03%
CN(C)CCOC(=O)COc1ccc(Cl)cc1.Cl [CENTROPHENOXINE HYDROCHLORIDE]	70.12%	88.3%
CC(C)CC(NC(=O)C(C)N)C(=O)O (racemic) [ALANYL-dl-LEUCINE]	111.6%	98.55%
CCCCCCCCCCC[C@@H](C[C@@H]1OC(=O)[C@H]1CCCCCC)OC(=O)[C@H](CC(C)C)NC=O [ORLISTAT]	85.27%	84.62%
ClC(Cl)=C(c1ccc(Cl)cc1)c1ccc(Cl)cc1 [DICHLORODIPHENYLDICHLOROETHYLENE]	94.96%	103.2%
CCCC(C)C1(CC)C(=O)NC(=O)NC1=O (stereo unspecified) [PENTOBARBITAL]	94.35%	94.07%
CCc1ccc2c(O)c3c(cc2c1C(=O)OC)C(=O)c1c(O)ccc(O)c1C3=O [BISANHYDRORUTILANTINONE]	104.1%	115.2%
CCn1cc(C(=O)O)c(=O)c2ccc(C)nc21 [NALIDIXIC ACID]	63.37%	81.71%
CC(=O)N[C@@H](Cc1c[nH]c2ccccc12)C(=O)O [ACETYLTRYPTOPHAN]	63.36%	85.99%
CC1=CCCC2C1(C)CCC(C)C2(C)CC/C(C)=C/Cn1c[n+](C)c2c(N)ncnc21 (stereo unspecified) [AGELASINE (stereochemistry of diterpene unknown)]	56.98%	93.91%
COc1ccccc1-c1cc(=O)c2cccc(OC)c2o1 [8,2'-DIMETHOXYFLAVONE]	107.3%	108%
O=C1c2ccccc2C(=O)c2c(O)c(O)cc(O)c21 [PURPURIN]	100.1%	98.68%

Compound	residual activity [1]	residual activity [2]
CCOC(=O)c1c(C)cc(O)c(C=O)c1O [ETHYL HEMATOMMATE]	61.89%	77.96%
O=C(NC(=O)c1c(F)cccc1F)Nc1cc(Cl)c(OC(F)(F)C(F)C(F)(F)F)cc1Cl (stereo unspecified) [LUFENURON]	102.8%	97.09%
c1ccc(/N=N/c2ccccc2)cc1 [AZOBENZENE]	216.3%	112.1%
COc1cc2nc(N3CCN(C(=O)c4ccco4)CC3)nc(N)c2cc1OC.Cl [PRAZOSIN HYDROCHLORIDE]	99.58%	90.48%
NS(=O)(=O)c1cc2c(cc1Cl)N=C(CSCc1ccccc1)NS2(=O)=O [BENZTHIAZIDE]	74.12%	56.86%
CCOc1ccc(C(=O)c2ccc(O)c(O)c2O)cc1 [2,3,4-TRIHYDROXY-4'-ETHOXYBENZOPHENONE]	134.1%	99.48%
COc1c2ccoc2cc2oc(C)cc(=O)c12 [VISNAGIN]	127.2%	98.15%
CC1(C)C=Cc2c(cc3occ(-c4ccc5c(c4)OCO5)c(=O)c3c2O)O1 [ROBUSTONE]	102.3%	96.96%
CC1=C(/C=C/C(C)=C/C=C/C(C)=C\C(=O)O)C(C)(C)CCC1 [ISOTRETINOIN]	32.24%	51.47%
O=C(O)c1cc([N+](=O)[O-])ccc1NCCCc1ccccc1 [5-NITRO-2-PHENYLPROPYLAMINOBENZOIC ACID [NPPB]]	40.14%	33.43%
COP(N)(=O)SC (stereo unspecified) [METHAMIDOPHOS]	96.41%	106%
CO[C@H]1C=C[C@@]23c4cc5c(cc4CN(C[C@@H]2O)[C@H]3C1)OCO5	94.19%	100.9196%
C[C@H]1[C@H](C)CC[C@]2(CO)CC[C@]3(C)C(=CC[C@@H]4[C@@]5(C)CC[C@H](O)C(C)(C)[C@@H]5CC[C@]43C)[C@H]12 [UVAOL]	121.5%	107.5%
C[C@@H]1O[C@@H](O[C@H]2[C@H](Oc3cc(O)c4c(=O)cc(-c5ccc(O)cc5)oc4c3)O[C@H](CO)[C@@H](O)[C@@H]2O)[C@H](O)[C@H](O)[C@H]1O [RHOIFOLIN]	101.7%	203.1%
Cc1c(N(C)CS(=O)(=O)[O-])c(=O)n(-c2ccccc2)n1C.[Na+] [DIPYRONE SODIUM]	72.95%	89.51%
C[N+](C)(C)CCCCCC[N+](C)(C)C.[Br-].[Br-] [HEXAMETHONIUM BROMIDE]	76.07%	77.59%
CCOP(=S)(OCC)Oc1nc(Cl)c(Cl)cc1Cl [CHLORPYRIFOS]	140%	127.1%
CC1(C)C2CC(=O)O[C@@]3(C)C4=CC(=O)O[C@@H](c5ccoc5)[C@]4(C)CCC3[C@@]2(C)C=C[C@H]1O (stereo partly specified) [DEOXYANDIROBIN LACTONE]	29.53%	53.06%
CC(=O)Oc1cc2c(c(C)c1OC(C)=O)CC1OC13[C@@]2(C)CC[C@@]1(C)C2C[C@](C)(C(=O)O)CC[C@]2(C)CC[C@]31C (stereo partly specified)	63.61%	37.72%
NC(=O)c1ncn([C@@H]2O[C@H](CO)[C@@H](O)[C@H]2O)n1 [RIBAVIRIN]	112.3%	87.39%
O=C(/C=C(\O)c1ccccc1)c1ccccc1O [2',beta-DIHYDROXYCHALCONE]	95.04%	97.75%
O=C(O)[C@H](O)[C@@](O)(Cc1ccc(O)cc1)C(=O)O [PISCIDIC ACID]	92.25%	90.37%
CC1(C)C(=O)[C@H]2C[C@]3(O)C4=CC(=O)O[C@@H](c5ccoc5)[C@@]4(C)CCC3[C@](C)(C2=O)[C@H]1CC(=O)O (stereo partly specified) [8-HYDROXYCARAPINIC ACID]	73.89%	78.38%
OCCN1CCN(CCCN2c3ccccc3Sc3ccc(Cl)cc32)CC1 [PERPHENAZINE]	130%	113.3%
